Experimental data: patent US10561614B2, “Tenofovir granules” (STEERLIFE INDIA PRIVATE LIMITED, priority 2017, dated 2020)

Assay: Organic impurities of TDF granules by HPLC (USP Pending Monograph procedure 1), before and after twin screw granulation
Type: physicochemical
Details: initial, no storage
Experimental: The test of organic impurities of Tenofovir Disoproxil Fumarate granules carried out by HPLC (Make-Agilent 1260 Infinity series).
The Tenofovir Disoproxil Fumarate granules sample was analyzed for organic impurities as per method based on Organic impurities, procedure 1 of USP Pending Monographs of Tenofovir Disoproxil Fumarate v.1 Authorized Sep. 1, 2011.
The standard, Tenofovir Disoproxil Fumarate (TDF) was prepared in solution A. concentration 0.502 μg/mL in solution. The sample i.e., TDF granules of the present invention was prepared in solution A, concentration 520.05 μg/mL.
The standard and sample solution was injected in chromatographic system and following impurity results are reported.
The test of organic impurities of Tenofovir Disoproxil Fumarate granules carried out by HPLC (Agilent 1260 Infinity series).
The Tenofovir Disoproxil Fumarate granules sample were analyzed for organic impurities as per Organic impurities, procedure 1 of USP Pending Monographs of Tenofovir Disoproxil Fumarate v.1 Authorized Sep. 1, 2011.
The standard [Tenofovir Disoproxil Fumarate (TDF)] was prepared in solution A. concentration 0.502 μg/mL in solution.
The sample [TDF granules of the present invention] was prepared in solution A, concentration 520.05 μg/mL.

## CC(C)OC(=O)OCOP(=O)(CO[C@H](C)Cn1cnc2c(N)ncnc21)OCOC(=O)OC(C)C.O=C(O)/C=C/C(=O)O [Unprocessed TDF API, 9-[(R)-2-[[bis[[(isopropoxycarbonyl)oxy]-methoxy]phosphinyl]methoxy]propyl]adenine fumarate (1:1)]
  (R)-9-(2-Phosphonomethoxypropyl)adenine impurity: BDL
  Adenine impurity: Not detected
  Any individual unspecified impurity: 0.02%
  Tenofovir disoproxil carbamate impurity: Not detected
  Tenofovir disoproxil dimer impurity: 0.04%
  Tenofovir disoproxil ethyl ester impurity: 0.03%
  Tenofovir isopropyl isoproxil impurity: 0.17%
  Tenofovir isoproxil monoester impurity: 0.48%
  Total impurities: 0.84%
Listed as Unprocessed (API)
  Adenine impurity: BDL
  Any individual unspecified impurity: 0.015%
  Tenofovir isopropyl isoproxil impurity: 0.118%
  Tenofovir isoproxil monoester impurity: 0.321%
  Total impurities: 0.490%
